{
  "source": "paper PMC11432330",
  "about": "“Novel Drug-like HsrA Inhibitors Exhibit Potent Narrow-Spectrum Antimicrobial Activities against Helicobacter pylori” (International Journal of Molecular Sciences, 2024)",
  "test_system": "H. pylori 26695",
  "test": "In vivo inhibition of HsrA: RNA-Seq transcriptomic analysis of exposed cells",
  "assay_type": "cell-based, Helicobacter pylori",
  "settings": "for log2 Fold Change: exposed to lethal concentrations vs control",
  "method": "Bacterial growth from three blood agar plates of H. pylori ATCC 700392 (aka 26695) incubated for 48 h at 37 °C under microaerobic conditions was aseptically resuspended in BHI + FBS and adjusted to 10^7 CFU/mL. BHI broth cultures were incubated microaerobically at 37 °C for 24 h. […] At this time, bacterial growth was stopped by adding 1.5 mL ice-cold RNA stop solution (95% absolute ethanol, 5% acid-buffered phenol) and subsequently incubated on ice. Control samples were exposed to the same amount of DMSO instead of the inhibitor. Helicobacter cells from all samples were harvested by centrifugation (4000 rpm at 4 °C for 10 min), then the pellets were quickly frozen by immersion in liquid nitrogen and stored at −80 °C.\nRNA-Seq analysis was performed by GENEWIZ (Azenta Life Sciences, Leipzig, Germany). Frozen cell pellets from two biological replicates of each treatment condition were properly submitted to GENEWIZ in dry ice. RNA-Seq libraries were prepared according to standard protocols via rRNA depletion, RNA fragmentation and random priming, reverse transcription, 5’-phosphorylation and dA-tailing of cDNAs, adaptor ligation, and PCR enrichment. Once the quality of each library was confirmed, they were sequenced on an Illumina NovaSeq 6000 (Illumina, San Diego, CA, USA) with 150-bp paired-ends. Raw sequence reads were filtered to remove possible adapter sequences and nucleotides with poor quality using Trimmomatic v.0.36 [105]. The trimmed reads were subsequently mapped to the H. pylori strain 26695 reference genome NC_000915.1 available on NCBI, by using the Bowtie2 aligner v.2.2.6 [106]. Unique gene hit counts were calculated by using featureCounts from the Subread package v.1.5.2. Only unique reads that fell within the gene regions were counted. Using DESeq2 [108], a comparison of the gene expression between the control and treated groups of samples was performed. The Wald test was used to generate p-values and log2 fold changes. Genes with an adjusted p-value < 0.05 and absolute log2 fold change >1 were considered as differentially expressed genes (DEGs) for each comparison. The RNA-Seq data generated in this study have been deposited in ArrayExpress with the accession number E-MTAB-14255.",
  "data": [
    {"smiles": "NC(=NOC(=O)Nc1ccc(Cl)cc1)c1csc([N+](=O)[O-])c1", "note": "[Ligand V, N′-{[(4-chloroanilino)carbonyl]}oxy-5-nitrothiophene-3-carboximidamide]", "values": [
      {"measurement": "log2 Fold Change", "setting": "gene HP1464", "value": -0.584},
      {"measurement": "log2 Fold Change", "setting": "gene HP1467", "value": 1.322},
      {"measurement": "log2 Fold Change HP1469", "setting": "gene HP1469, lethal concentrations of V vs control", "value": 0.362},
      {"measurement": "log2 Fold Change", "setting": "gene HP1470", "value": 1.312},
      {"measurement": "log2 Fold Change HP1473", "setting": "gene HP1473, lethal concentrations of V vs control", "value": 0.275},
      {"measurement": "log2 Fold Change", "setting": "gene HP1481", "value": -0.602},
      {"measurement": "log2 Fold Change HP1492", "setting": "gene HP1492, lethal concentrations of V vs control", "value": 0.282},
      {"measurement": "log2 Fold Change HP1499", "setting": "gene HP1499, lethal concentrations of V vs control", "value": 0.340},
      {"measurement": "log2 Fold Change HP1501", "setting": "gene HP1501, lethal concentrations of V vs control", "value": 0.305},
      {"measurement": "log2 Fold Change", "setting": "gene HP1504", "value": 1.311},
      {"measurement": "log2 Fold Change HP1505", "setting": "gene HP1505, lethal concentrations of V vs control", "value": 0.278},
      {"measurement": "log2 Fold Change HP1512", "setting": "gene HP1512, lethal concentrations of V vs control", "value": 0.234},
      {"measurement": "log2 Fold Change", "setting": "gene HP1513", "value": -0.489},
      {"measurement": "log2 Fold Change HP1521", "setting": "gene HP1521, lethal concentrations of V vs control", "value": 0.260},
      {"measurement": "log2 Fold Change", "setting": "gene HP1537", "value": -0.495},
      {"measurement": "log2 Fold Change HP1539", "setting": "gene HP1539, lethal concentrations of V vs control", "value": 0.288},
      {"measurement": "log2 Fold Change", "setting": "gene HP1556", "value": -0.480},
      {"measurement": "log2 Fold Change HP1562", "setting": "gene HP1562, lethal concentrations of V vs control", "value": 0.282},
      {"measurement": "log2 Fold Change", "setting": "gene HP1572", "value": -0.532},
      {"measurement": "log2 Fold Change", "setting": "gene HP1573", "value": -0.478},
      {"measurement": "log2 Fold Change", "setting": "gene HPrrnA16S", "value": 2.639},
      {"measurement": "log2 Fold Change", "setting": "gene acpS", "value": -0.554},
      {"measurement": "log2 Fold Change adk", "setting": "gene adk, lethal concentrations of V vs control", "value": 0.370},
      {"measurement": "log2 Fold Change aroB", "setting": "gene aroB, lethal concentrations of V vs control", "value": 0.331},
      {"measurement": "log2 Fold Change ddl", "setting": "gene ddl, lethal concentrations of V vs control", "value": 0.165},
      {"measurement": "log2 Fold Change dnaA", "setting": "gene dnaA, lethal concentrations of V vs control", "value": 0.315},
      {"measurement": "log2 Fold Change dnaG", "setting": "gene dnaG, lethal concentrations of V vs control", "value": 0.180},
      {"measurement": "log2 Fold Change dut", "setting": "gene dut, lethal concentrations of V vs control", "value": 0.253},
      {"measurement": "log2 Fold Change fbcH", "setting": "gene fbcH, lethal concentrations of V vs control", "value": 0.402},
      {"measurement": "log2 Fold Change flgD", "setting": "gene flgD, lethal concentrations of V vs control", "value": 0.479},
      {"measurement": "log2 Fold Change flgH", "setting": "gene flgH, lethal concentrations of V vs control", "value": 0.237},
      {"measurement": "log2 Fold Change flhF", "setting": "gene flhF, lethal concentrations of V vs control", "value": 0.252},
      {"measurement": "log2 Fold Change", "setting": "gene fliQ", "value": -0.518},
      {"measurement": "log2 Fold Change fliR", "setting": "gene fliR, lethal concentrations of V vs control", "value": 0.363},
      {"measurement": "log2 Fold Change folE", "setting": "gene folE, lethal concentrations of V vs control", "value": 0.244},
      {"measurement": "log2 Fold Change fusA", "setting": "gene fusA, lethal concentrations of V vs control", "value": 0.268},
      {"measurement": "log2 Fold Change", "setting": "gene gcp", "value": -0.507},
      {"measurement": "log2 Fold Change glmM", "setting": "gene glmM, lethal concentrations of V vs control", "value": 0.344},
      {"measurement": "log2 Fold Change", "setting": "gene gltX", "value": -0.588},
      {"measurement": "log2 Fold Change gmk", "setting": "gene gmk, lethal concentrations of V vs control", "value": 0.172},
      {"measurement": "log2 Fold Change groES", "setting": "gene groES, lethal concentrations of V vs control", "value": 0.428},
      {"measurement": "log2 Fold Change guaA", "setting": "gene guaA, lethal concentrations of V vs control", "value": 0.370},
      {"measurement": "log2 Fold Change gyrB", "setting": "gene gyrB, lethal concentrations of V vs control", "value": 0.200},
      {"measurement": "log2 Fold Change", "setting": "gene hemC", "value": -0.538},
      {"measurement": "log2 Fold Change hypA", "setting": "gene hypA, lethal concentrations of V vs control", "value": 0.375},
      {"measurement": "log2 Fold Change infB", "setting": "gene infB, lethal concentrations of V vs control", "value": 0.319},
      {"measurement": "log2 Fold Change ksgA", "setting": "gene ksgA, lethal concentrations of V vs control", "value": 0.343},
      {"measurement": "log2 Fold Change", "setting": "gene lpxB", "value": -0.543},
      {"measurement": "log2 Fold Change lpxK", "setting": "gene lpxK, lethal concentrations of V vs control", "value": 0.332},
      {"measurement": "log2 Fold Change mnmA", "setting": "gene mnmA, lethal concentrations of V vs control", "value": 0.256},
      {"measurement": "log2 Fold Change motB", "setting": "gene motB, lethal concentrations of V vs control", "value": 0.465},
      {"measurement": "log2 Fold Change mraY", "setting": "gene mraY, lethal concentrations of V vs control", "value": 0.155},
      {"measurement": "log2 Fold Change nusB", "setting": "gene nusB, lethal concentrations of V vs control", "value": 0.152},
      {"measurement": "log2 Fold Change oorC", "setting": "gene oorC, lethal concentrations of V vs control", "value": 0.231},
      {"measurement": "log2 Fold Change", "setting": "gene panC", "value": 1.338},
      {"measurement": "log2 Fold Change", "setting": "gene pheT", "value": -0.561},
      {"measurement": "log2 Fold Change porA", "setting": "gene porA, lethal concentrations of V vs control", "value": 0.146},
      {"measurement": "log2 Fold Change prfB", "setting": "gene prfB, lethal concentrations of V vs control", "value": 0.329},
      {"measurement": "log2 Fold Change pyrH", "setting": "gene pyrH, lethal concentrations of V vs control", "value": 0.243},
      {"measurement": "log2 Fold Change recA", "setting": "gene recA, lethal concentrations of V vs control", "value": 0.430},
      {"measurement": "log2 Fold Change", "setting": "gene rnc", "value": -0.477},
      {"measurement": "log2 Fold Change", "setting": "gene rplQ", "value": -0.590},
      {"measurement": "log2 Fold Change", "setting": "gene rplW", "value": -0.487},
      {"measurement": "log2 Fold Change", "setting": "gene rplX", "value": -0.561},
      {"measurement": "log2 Fold Change rpsB", "setting": "gene rpsB, lethal concentrations of V vs control", "value": 0.177},
      {"measurement": "log2 Fold Change", "setting": "gene rpsI", "value": -0.579},
      {"measurement": "log2 Fold Change ruvA", "setting": "gene ruvA, lethal concentrations of V vs control", "value": 0.457},
      {"measurement": "log2 Fold Change ruvB", "setting": "gene ruvB, lethal concentrations of V vs control", "value": 0.388},
      {"measurement": "log2 Fold Change secD", "setting": "gene secD, lethal concentrations of V vs control", "value": 0.450},
      {"measurement": "log2 Fold Change", "setting": "gene tRNA-Arg-4", "value": -0.569},
      {"measurement": "log2 Fold Change", "setting": "gene tRNA-Gln-1", "value": 1.327},
      {"measurement": "log2 Fold Change tRNA-Ser-1", "setting": "gene tRNA-Ser-1, lethal concentrations of V vs control", "value": 0.297},
      {"measurement": "log2 Fold Change", "setting": "gene tRNA-Ser-2", "value": 1.370},
      {"measurement": "log2 Fold Change tRNA-Ser-3", "setting": "gene tRNA-Ser-3, lethal concentrations of V vs control", "value": 0.425},
      {"measurement": "log2 Fold Change", "setting": "gene tRNA-Trp-1", "value": -0.513},
      {"measurement": "log2 Fold Change", "setting": "gene tgt", "value": -0.523},
      {"measurement": "log2 Fold Change trpD", "setting": "gene trpD, lethal concentrations of V vs control", "value": 0.327},
      {"measurement": "log2 Fold Change tsf", "setting": "gene tsf, lethal concentrations of V vs control", "value": 0.474},
      {"measurement": "log2 Fold Change uvrA", "setting": "gene uvrA, lethal concentrations of V vs control", "value": 0.417},
      {"measurement": "log2 Fold Change", "setting": "gene xseA", "value": -0.471},
      {"measurement": "log2 Fold Change yajC", "setting": "gene yajC, lethal concentrations of V vs control", "value": 0.146}
    ]}
  ]
}
